The values that follow are results of earlier work, collected in patent US20070191228A1, “Natural herbicide” (priority 2005, published 2007).

Structures are written as SMILES.

Series [1] has as its system sorghum (Sorghhum bicolor (L.)). Conditions: Owens 1973.
Series [2] concerns large crabgrass (Digitaria sanguimalis). Conditions: Owens 1973.

Take `N[C@H](CO)CO/C=C/[C@H](N)C(=O)O` [Rhizobitoxine, rhizobitoxine]: the herbicidal activity result in series [1] and in series [2] was “herbicidal” in each case.
